Experiments:
Test in all cases: biochemical
Parameters in all cases: DiscoverX kinase panel, active-site competition binding (KINOMEscan type), percent of control at one concentration
Conditions in all cases: competition binding, percent of control
CAMK1B = target: T1, CAMK1B (Homo sapiens, UniProt Q6P2M8)
T1 construct: gene PNCK

CAMK1G = CAMK1G (Homo sapiens, UniProt Q96NX5)
CDK4 = CDK4 (Homo sapiens, UniProt P11802)
CDK7 = CDK7 (Homo sapiens, UniProt P50613)
CDKL2 = CDKL2 (Homo sapiens, UniProt Q92772)
CDKL2, sequence (Q92772 whole entry): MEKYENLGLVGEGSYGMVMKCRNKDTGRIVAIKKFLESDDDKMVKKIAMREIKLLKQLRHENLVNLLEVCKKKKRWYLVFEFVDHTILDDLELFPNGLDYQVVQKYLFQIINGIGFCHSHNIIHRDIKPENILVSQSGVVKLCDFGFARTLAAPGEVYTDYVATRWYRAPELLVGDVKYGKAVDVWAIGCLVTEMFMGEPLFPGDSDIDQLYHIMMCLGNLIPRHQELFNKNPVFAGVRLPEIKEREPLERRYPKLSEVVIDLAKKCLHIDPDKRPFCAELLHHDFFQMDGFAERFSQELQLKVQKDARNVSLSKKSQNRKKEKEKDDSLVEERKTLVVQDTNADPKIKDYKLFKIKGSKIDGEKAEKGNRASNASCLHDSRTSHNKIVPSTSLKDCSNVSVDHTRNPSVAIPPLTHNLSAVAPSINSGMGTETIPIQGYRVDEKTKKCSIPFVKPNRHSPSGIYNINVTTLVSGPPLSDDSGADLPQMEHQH

CDKL3 = CDKL3 (Homo sapiens, UniProt Q8IVW4)
CDKL3, sequence (Q8IVW4 whole entry): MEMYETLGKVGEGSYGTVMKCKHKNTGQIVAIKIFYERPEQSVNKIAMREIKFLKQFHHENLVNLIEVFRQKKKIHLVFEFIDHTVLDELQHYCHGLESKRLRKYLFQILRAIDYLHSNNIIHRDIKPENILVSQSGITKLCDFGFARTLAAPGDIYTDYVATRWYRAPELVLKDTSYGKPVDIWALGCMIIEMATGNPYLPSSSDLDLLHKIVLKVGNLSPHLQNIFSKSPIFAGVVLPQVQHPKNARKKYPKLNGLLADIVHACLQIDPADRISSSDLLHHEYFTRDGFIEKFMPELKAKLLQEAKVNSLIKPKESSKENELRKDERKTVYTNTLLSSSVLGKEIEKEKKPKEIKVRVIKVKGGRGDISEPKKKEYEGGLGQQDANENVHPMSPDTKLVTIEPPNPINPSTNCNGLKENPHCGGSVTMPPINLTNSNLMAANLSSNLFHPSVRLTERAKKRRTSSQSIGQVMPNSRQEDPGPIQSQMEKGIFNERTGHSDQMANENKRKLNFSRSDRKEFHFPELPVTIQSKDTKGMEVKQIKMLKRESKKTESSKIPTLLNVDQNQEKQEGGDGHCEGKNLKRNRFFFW

CLK4 = CLK4 (Homo sapiens, UniProt Q9HAZ1)
CLK4, sequence (Q9HAZ1 whole entry): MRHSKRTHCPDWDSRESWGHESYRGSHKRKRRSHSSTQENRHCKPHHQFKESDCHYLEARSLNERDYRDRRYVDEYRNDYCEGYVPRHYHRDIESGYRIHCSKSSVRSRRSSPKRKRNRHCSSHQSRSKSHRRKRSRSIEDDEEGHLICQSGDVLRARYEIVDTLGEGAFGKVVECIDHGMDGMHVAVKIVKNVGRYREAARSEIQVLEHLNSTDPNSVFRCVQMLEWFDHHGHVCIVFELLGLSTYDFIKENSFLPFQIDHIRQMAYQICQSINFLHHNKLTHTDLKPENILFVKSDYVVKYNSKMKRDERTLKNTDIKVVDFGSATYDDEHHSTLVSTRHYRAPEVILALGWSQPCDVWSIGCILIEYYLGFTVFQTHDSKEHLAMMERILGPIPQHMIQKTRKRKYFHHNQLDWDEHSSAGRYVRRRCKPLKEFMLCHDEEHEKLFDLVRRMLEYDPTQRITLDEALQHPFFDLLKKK

DCAMKL1 = target: T2, DCAMKL1 (Homo sapiens, UniProt O15075)
T2 construct: gene DCLK1

EGFR = EGFR (Homo sapiens, UniProt P00533)
EGFR(G719C) = EGFR(G719C) (Homo sapiens, UniProt P00533, G719C)
EGFR(G719C), sequence (P00533 whole entry G719C): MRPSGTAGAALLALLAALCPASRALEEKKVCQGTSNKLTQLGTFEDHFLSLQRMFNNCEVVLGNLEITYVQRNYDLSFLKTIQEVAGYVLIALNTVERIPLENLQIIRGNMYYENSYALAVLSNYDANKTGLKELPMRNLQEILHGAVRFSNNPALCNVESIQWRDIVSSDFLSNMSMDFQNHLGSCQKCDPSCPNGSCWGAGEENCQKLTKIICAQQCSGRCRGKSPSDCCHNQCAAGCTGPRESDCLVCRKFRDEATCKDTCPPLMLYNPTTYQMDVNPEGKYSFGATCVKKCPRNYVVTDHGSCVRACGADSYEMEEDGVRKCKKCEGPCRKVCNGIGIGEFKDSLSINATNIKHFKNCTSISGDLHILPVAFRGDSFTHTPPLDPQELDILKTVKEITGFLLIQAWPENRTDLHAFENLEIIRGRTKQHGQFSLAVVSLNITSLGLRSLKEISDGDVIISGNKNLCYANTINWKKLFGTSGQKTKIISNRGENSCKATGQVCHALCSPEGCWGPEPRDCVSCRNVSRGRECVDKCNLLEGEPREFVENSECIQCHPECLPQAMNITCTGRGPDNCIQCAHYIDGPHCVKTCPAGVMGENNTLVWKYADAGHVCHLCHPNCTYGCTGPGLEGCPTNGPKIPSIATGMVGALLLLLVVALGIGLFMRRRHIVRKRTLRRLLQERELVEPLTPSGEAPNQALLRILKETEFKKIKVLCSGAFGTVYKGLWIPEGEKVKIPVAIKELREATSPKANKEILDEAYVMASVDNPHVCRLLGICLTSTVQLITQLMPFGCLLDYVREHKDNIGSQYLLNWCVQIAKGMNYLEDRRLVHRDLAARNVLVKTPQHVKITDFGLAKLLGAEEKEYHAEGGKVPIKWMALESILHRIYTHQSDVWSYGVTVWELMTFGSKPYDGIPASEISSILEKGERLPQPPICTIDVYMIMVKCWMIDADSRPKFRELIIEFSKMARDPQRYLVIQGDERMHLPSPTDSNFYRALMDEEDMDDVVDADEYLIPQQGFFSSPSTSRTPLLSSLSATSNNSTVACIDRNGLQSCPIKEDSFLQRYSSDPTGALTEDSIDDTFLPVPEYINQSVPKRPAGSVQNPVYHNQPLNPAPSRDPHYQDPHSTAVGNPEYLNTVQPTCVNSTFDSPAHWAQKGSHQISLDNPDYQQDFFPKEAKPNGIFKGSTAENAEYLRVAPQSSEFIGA

EGFR(L747-T751del,Sins) = EGFR(L747-T751del,Sins) (Homo sapiens, UniProt P00533, DEL747-750/T751S)
FLT1 = FLT1 (Homo sapiens, UniProt P17948)
FLT3(ITD,F691L) = FLT3(ITD,F691L) (Homo sapiens, UniProt P36888, F691L/ITD)
FLT3(ITD,F691L), sequence (P36888 564-993 F691L): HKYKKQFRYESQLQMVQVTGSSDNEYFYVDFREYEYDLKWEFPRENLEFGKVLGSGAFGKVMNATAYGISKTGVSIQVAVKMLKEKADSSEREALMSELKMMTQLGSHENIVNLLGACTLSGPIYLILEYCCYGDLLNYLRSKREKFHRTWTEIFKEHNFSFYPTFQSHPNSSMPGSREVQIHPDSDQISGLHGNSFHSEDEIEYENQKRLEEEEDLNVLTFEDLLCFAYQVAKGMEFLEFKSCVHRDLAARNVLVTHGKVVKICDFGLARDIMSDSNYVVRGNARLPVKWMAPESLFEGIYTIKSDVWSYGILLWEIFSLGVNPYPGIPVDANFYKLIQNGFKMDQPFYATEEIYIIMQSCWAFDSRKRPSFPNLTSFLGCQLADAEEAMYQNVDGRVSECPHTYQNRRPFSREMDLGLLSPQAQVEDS

HCK = HCK (Homo sapiens, UniProt P08631)
HCK, sequence (P08631 whole entry): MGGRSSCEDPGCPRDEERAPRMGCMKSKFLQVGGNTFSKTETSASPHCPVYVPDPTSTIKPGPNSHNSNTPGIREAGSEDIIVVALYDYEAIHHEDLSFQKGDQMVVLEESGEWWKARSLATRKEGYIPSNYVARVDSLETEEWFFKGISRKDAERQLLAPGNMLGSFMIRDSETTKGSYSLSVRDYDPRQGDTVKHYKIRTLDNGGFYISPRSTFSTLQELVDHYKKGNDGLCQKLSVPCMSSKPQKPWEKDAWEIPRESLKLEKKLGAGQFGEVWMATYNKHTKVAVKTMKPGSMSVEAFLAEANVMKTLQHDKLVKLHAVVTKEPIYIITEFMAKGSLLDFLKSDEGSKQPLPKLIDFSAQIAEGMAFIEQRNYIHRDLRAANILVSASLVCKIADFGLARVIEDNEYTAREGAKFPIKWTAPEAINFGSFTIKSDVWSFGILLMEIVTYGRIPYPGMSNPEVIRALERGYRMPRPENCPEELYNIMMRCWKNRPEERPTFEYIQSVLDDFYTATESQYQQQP

NEK1 = NEK1 (Homo sapiens, UniProt Q96PY6)
PDGFRB = PDGFRB (Homo sapiens, UniProt P09619)
PIK3CA(H1047Y) = PIK3CA(H1047Y) (Homo sapiens, UniProt P42336, H1047Y)
PIK3CG = PIK3CG (Homo sapiens, UniProt P48736)
RIPK1 = RIPK1 (Homo sapiens, UniProt Q13546)
[1] = target: T3, RSK4(Kin.Dom.2-C-terminal) (Homo sapiens, UniProt Q9UK32)
T3 construct: gene RPS6KA6; Kin.Dom.2-C-terminal
T3 sequence (Q9UK32 whole entry): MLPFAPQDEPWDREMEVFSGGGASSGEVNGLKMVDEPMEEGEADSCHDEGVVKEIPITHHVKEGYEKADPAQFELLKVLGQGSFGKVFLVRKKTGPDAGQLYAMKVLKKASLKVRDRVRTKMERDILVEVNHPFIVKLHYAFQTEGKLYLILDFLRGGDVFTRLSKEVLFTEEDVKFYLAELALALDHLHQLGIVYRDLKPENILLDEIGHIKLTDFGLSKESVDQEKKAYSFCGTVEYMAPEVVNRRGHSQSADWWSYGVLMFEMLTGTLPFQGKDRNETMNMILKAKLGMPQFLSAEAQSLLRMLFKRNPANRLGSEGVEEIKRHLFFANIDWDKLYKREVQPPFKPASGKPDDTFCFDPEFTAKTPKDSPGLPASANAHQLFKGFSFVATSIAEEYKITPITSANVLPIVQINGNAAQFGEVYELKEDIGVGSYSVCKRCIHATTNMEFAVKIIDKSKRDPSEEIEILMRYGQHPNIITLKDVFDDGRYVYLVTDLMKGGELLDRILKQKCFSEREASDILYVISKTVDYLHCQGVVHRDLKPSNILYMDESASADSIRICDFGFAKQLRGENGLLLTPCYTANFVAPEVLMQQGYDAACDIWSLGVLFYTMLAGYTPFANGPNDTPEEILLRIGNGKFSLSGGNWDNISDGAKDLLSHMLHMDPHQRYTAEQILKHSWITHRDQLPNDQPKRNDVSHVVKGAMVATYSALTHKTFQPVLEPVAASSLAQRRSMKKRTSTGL

SGK = target: T4, SGK (Homo sapiens, UniProt O00141)
T4 construct: gene SGK1

CAMK1G, sequence (Q96NX5 whole entry): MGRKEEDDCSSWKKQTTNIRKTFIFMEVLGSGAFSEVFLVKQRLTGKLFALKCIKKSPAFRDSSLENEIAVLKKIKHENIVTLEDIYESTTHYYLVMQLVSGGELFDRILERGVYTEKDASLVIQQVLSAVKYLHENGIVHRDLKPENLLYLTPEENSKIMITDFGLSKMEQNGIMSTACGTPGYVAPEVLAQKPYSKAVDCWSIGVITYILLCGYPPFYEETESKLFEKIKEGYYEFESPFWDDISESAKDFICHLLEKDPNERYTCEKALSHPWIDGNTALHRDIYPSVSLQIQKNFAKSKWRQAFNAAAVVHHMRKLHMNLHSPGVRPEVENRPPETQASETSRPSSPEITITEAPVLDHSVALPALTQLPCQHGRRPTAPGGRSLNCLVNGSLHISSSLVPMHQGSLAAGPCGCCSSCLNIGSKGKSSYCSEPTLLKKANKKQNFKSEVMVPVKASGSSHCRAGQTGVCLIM

SMILES: COc1cc2c(cn1)N(C)C(=O)[C@@H](NC(=O)c1nc3n(n1)[C@H](c1ccccc1)CC3)CC2 [GNE684, (S)-N-((S)-7-methoxy-1-methyl-2-oxo-2,3,4,5-tetrahydro-1H-pyrido[3,4-b]azepin-3-yl)-5-phenyl-6,7-dihydro-5H-pyrrolo[1,2-b][1,2,4]triazole-2-carboxamide]
- remaining binding at 10 µM (CAMK1B): 100%
- remaining binding at 10 µM (CAMK1G): 100%
- remaining binding at 10 µM (CDK4): 100%
- remaining binding at 10 µM (CDK7): 75%
- remaining binding at 10 µM (CDKL2): 95%
- remaining binding at 10 µM (CDKL3): 69%
- remaining binding at 10 µM (CLK4): 95%
- remaining binding at 10 µM (DCAMKL1): 67%
- remaining binding at 10 µM (EGFR): 100%
- remaining binding at 10 µM (EGFR(G719C)): 87%
- remaining binding at 10 µM (EGFR(L747-T751del,Sins)): 84%
- remaining binding at 10 µM (FLT1): 100%
- remaining binding at 10 µM (FLT3(ITD,F691L)): 98%
- remaining binding at 10 µM (HCK): 93%
- remaining binding at 10 µM (NEK1): 100%
- remaining binding at 10 µM (PDGFRB): 94%
- remaining binding at 10 µM (PIK3CA(H1047Y)): 93%
- remaining binding at 10 µM (PIK3CG): 89%
- remaining binding at 10 µM (RIPK1): 0%
- remaining binding at 10 µM [1]: 95%
- remaining binding at 10 µM (SGK): 100%

From article PMC7206119, “RIP1 inhibition blocks inflammatory diseases but not tumor growth or metastases” (Cell Death and Differentiation, 2019)
